Data taken from the supplement of paper PMC11616607.

How the values were obtained:
Test in all cases: drug sensitivity score (DSS) from 5-point dose-response viability curve (DSS (area-under-curve based score)); higher = more sensitive (stronger growth inhibition or killing); extreme values may be limits of the assay
Details in all cases: exposure time: 72 h; concentration range: 5 concentrations over 10,000-fold range
[1] = system: CAOV3
In short: (§1)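 For the drug sensitivity score, obtained per cell line and drug in Breeze software, larger values mean greater sensitivity. No response corresponds to a score of zero. Ovarian cancer and normal ovarian cells were seeded at 1,500 per well into 384-well plates already holding acoustically dispensed drugs (Echo 550, DMSO or water, five concentrations over a 10,000-fold range) and incubated 3 days at 37°C, 5% CO2. CellTiter-Glo luminescence on a PHERAstar FS gave the viability readout.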

[2] = system: COV318
In short: as §1

[3] = system: COV362
In short: as §1

[4] = system: HOSE1C
In short: as §1

[5] = system: HOSE2C
In short: as §1

[6] = system: JHOS2
In short: as §1

[7] = system: Kuramochi
In short: as §1

[8] = system: OV90
In short: as §1

[9] = system: OVCAR4
In short: as §1

[10] = system: OVCAR5
In short: as §1

[11] = system: OVCAR8
In short: as §1

[12] = system: Ovsaho
In short: as §1

| Compound | drug sensitivity score [1] | drug sensitivity score [2] | drug sensitivity score [3] | drug sensitivity score [4] | drug sensitivity score [5] | drug sensitivity score [6] | drug sensitivity score [7] | drug sensitivity score [8] | drug sensitivity score [9] | drug sensitivity score [10] | drug sensitivity score [11] | drug sensitivity score [12] |
| --- | --- | --- | --- | --- | --- | --- | --- | --- | --- | --- | --- | --- |
| Cc1cccc(-c2[nH]c(CNc3ccccc3F)nc2-c2ccc3ncnn3c2)n1 [TEW-7197] | 0 | 0 | 5 | 0 | 0.9 | 0 | 0 | 0 | 0 | 1.3 | 0.1 | 0 |
| O=C(O)C(=O)O.[NH-][C@@H]1CCCC[C@H]1[NH-].[Pt+2] [Oxaliplatin] | 11.8 | 5 | 0.2 | 10.7 | 6 | 7.8 | 6.8 | 6.9 | 8.5 | 11.4 | 6.8 | 9 |
| Cc1nc(Nc2ncc(C(=O)Nc3c(C)cccc3Cl)s2)cc(N2CCN(CCO)CC2)n1 [Dasatinib] | 9.9 | 0.2 | 8.2 | 4.6 | 6 | 3.5 | 18.5 | 5.5 | 4.6 | 8 | 9.1 | 12.1 |
| CC(C)(C#N)c1cc(Cn2cncn2)cc(C(C)(C)C#N)c1 [Anastrozole] | 0 | 0 | 0 | 0 | 0 | 0 | 0 | 0 | 0 | 0 | 0 | 0 |
| CCOC(=O)C1=CCCC[C@H]1S(=O)(=O)Nc1ccc(F)cc1Cl [Resatorvid] | 0 | 0 | 0 | 0 | 0 | 0 | 0 | 0 | 0 | 0 | 0 | 0 |
| CCN(CC)CCOc1ccc(C(=C(Cl)c2ccccc2)c2ccccc2)cc1 [Clomifene] | 3.2 | 2.2 | 4.4 | 5.8 | 4.1 | 3.8 | 3.9 | 6.9 | 1.9 | 7 | 3.1 | 3.2 |
| CC(C)C[C@@H](C(=O)N[C@H](C(=O)OC1CCCC1)c1ccccc1)[C@H](O)C(=O)NO [Tosedostat] | 7.4 | 0.4 | 0 | 0 | 2.1 | 15.7 | 0.6 | 12.3 | 7.4 | 8.3 | 6.9 | 5.1 |
| CC(C)(C)c1cc(NC(=O)Nc2ccc(Oc3ccnc4[nH]c(=O)cnc34)cc2F)n(-c2ccccc2)n1 | 2.8 | 0 | 0 | 16.2 | 12.8 | 0.5 | 2.3 | 12.4 | 2.8 | 1.8 | 2 | 1.6 |
| Nc1nc(N)c2nc(-c3cccc(O)c3)c(-c3cccc(O)c3)nc2n1 [TG100-115] | 0.3 | 0 | 0.9 | 0 | 0 | 0 | 1.2 | 0 | 2.3 | 0.4 | 0 | 0 |
| C[C@]12C=CC(=O)C=C1CC[C@@H]1[C@@H]2[C@@H](O)C[C@@]2(C)[C@H]1CC[C@]2(O)C(=O)CO [Prednisolone] | 0 | 1.1 | 0 | 0 | 3.3 | 0.1 | 0 | 0.1 | 0 | 0 | 0.1 | 0 |
| CC(=O)c1c(C)c2cnc(Nc3ccc(N4CCNCC4)cn3)nc2n(C2CCCC2)c1=O [Palbociclib] | 0.1 | 3.2 | 1 | 4.5 | 2.9 | 6.3 | 1.4 | 0.8 | 0.1 | 3.6 | 0.5 | 3 |
| CN1CCN(C(=O)c2ccc3cc(CCNc4ncnc5ccc(C#N)cc45)ccc3c2)CC1 [Senexin B] | 0.2 | 0 | 0 | 0 | 0 | 0 | 2.6 | 0.5 | 1.1 | 1.7 | 0.2 | 1.3 |
| O=c1[nH]c(=O)n([C@H]2C[C@H](O)[C@@H](CO)O2)cc1F [Floxuridine] | 14.3 | 0 | 5.4 | 4.7 | 2.5 | 0.8 | 8.7 | 12.3 | 9.3 | 8.1 | 18.1 | 6.2 |
| NS(=O)(=O)NCCNc1nonc1/C(=N/O)Nc1ccc(F)c(Br)c1 [Epacadostat] | 0 | 1 | 0 | 0 | 0 | 0.9 | 0 | 0.4 | 0 | 0.3 | 0 | 0.1 |
| COc1c(OCCCN2CCOCC2)ccc2c1N=C(NC(=O)c1cnc(N)nc1)N1CCN=C21 [Copanlisib] | 9.9 | 3.8 | 2.5 | 4.8 | 6.6 | 2.6 | 8 | 3.5 | 5.3 | 10.4 | 5.7 | 6.3 |
| Cc1c(C(=O)Nc2ccc(N3C[C@@H](C)O[C@@H](C)C3)nc2)cccc1-c1ccc(OC(F)(F)F)cc1 [Sonidegib] | 0 | 2.6 | 0 | 1.6 | 1.8 | 2.2 | 4.7 | 1.3 | 0.2 | 1.2 | 3.3 | 2.5 |
| C[C@@H]1CN(Cc2ccc(F)cc2)[C@@H](C)CN1C(=O)c1cc2c(C(=O)C(=O)N(C)C)cn(C)c2cc1Cl [Talmapimod] | 0 | 0 | 0 | 0 | 0 | 0 | 0 | 0 | 0 | 0 | 0 | 0 |
| C[C@@H]1CCN(C(=O)CC#N)C[C@@H]1N(C)c1ncnc2[nH]ccc12 [Tofacitinib] | 0 | 0 | 0 | 2.8 | 0.2 | 0 | 0 | 0.3 | 0 | 0.2 | 0 | 0 |
| CC(C)C[C@H](NC(=O)CNC(=O)c1cc(Cl)ccc1Cl)B(O)O [Ixazomib] | 11.6 | 16.4 | 10.5 | 7.4 | 7.8 | 10.6 | 2.7 | 5.5 | 6.5 | 10.4 | 9 | 7 |
| FC(F)c1nc2ccccc2n1-c1nc(N2CCOCC2)nc(N2CCOCC2)n1 [ZSTK474] | 8 | 7.8 | 4.4 | 8.8 | 10.6 | 4 | 17.4 | 5.7 | 7.7 | 11 | 8.9 | 10.6 |
| Cn1ncnc1[C@H]1c2n[nH]c(=O)c3cc(F)cc(c23)N[C@@H]1c1ccc(F)cc1 [Talazoparib] | 4.1 | 3.1 | 0 | 10.1 | 8.7 | 3 | 4.3 | 5.1 | 1.9 | 3.2 | 5.7 | 4 |
| O=C(O)c1ccc(-c2c[nH]c3ncc(-c4ccccc4)cc23)cc1C1CCCC1 | 2.3 | 0 | 0.1 | 0 | 1.2 | 0 | 0 | 1.2 | 0 | 1.4 | 0.3 | 0 |
| CNC(=O)c1ccc(C)c(-n2c(C)cc(OCc3ccc(F)cc3F)c(Br)c2=O)c1 | 0 | 0 | 0 | 0 | 0 | 0 | 0.7 | 0 | 0 | 0.6 | 0 | 0 |
| CN(C)C(=O)c1ccc(S(=O)(=O)c2ccc(NC(=O)[C@@](C)(O)C(F)(F)F)c(Cl)c2)cc1 [AZD7545] | 1.1 | 0 | 0 | 0 | 0.4 | 0 | 0 | 0 | 0 | 0 | 2.2 | 0 |
| C[C@H]1O[C@@H](O[C@H]2[C@@H](O)C[C@H](O[C@H]3[C@@H](O)C[C@H](O[C@H]4CC[C@@]5(C)[C@H](CC[C@@H]6[C@@H]5C[C@@H](O)[C@]5(C)[C@@H](C7=CC(=O)OC7)CC[C@]65O)C4)O[C@@H]3C)O[C@@H]2C)C[C@H](O)[C@@H]1O [Digoxin] | 6.2 | 11.9 | 10.8 | 11.1 | 9.5 | 10.9 | 8.5 | 7.2 | 9.6 | 7.5 | 11.2 | 7.1 |
| Cc1cc(Nc2ncc(Cl)c(Nc3ccccc3S(=O)(=O)C(C)C)n2)c(OC(C)C)cc1C1CCNCC1 [Ceritinib] | 2.7 | 0.8 | 0 | 0.7 | 2.2 | 0 | 2.1 | 4.9 | 1.5 | 3.8 | 0 | 3.3 |
| N[C@@H]1CCCN(c2c(/C=C3\SC(=O)NC3=O)cccc2-c2ccccc2)C1 [AZD1208] | 0 | 1.1 | 0 | 0.2 | 0 | 0.3 | 1.7 | 0.3 | 0 | 1.4 | 0.1 | 3.5 |
| CCn1c(-c2nonc2N)nc2cnc(Oc3cccc(NC(=O)c4ccc(OCCN5CCOCC5)cc4)c3)cc21 | 1.6 | 5.7 | 0.2 | 12.7 | 6 | 2.8 | 2.1 | 5.1 | 0.6 | 2.2 | 4.4 | 0.9 |
| Cc1c(N)nc([C@H](CC(N)=O)NC[C@H](N)C(N)=O)nc1C(=O)N[C@H](C(=O)N[C@H](C)[C@@H](O)[C@H](C)C(=O)N[C@H](C(=O)NCCc1nc(-c2nc(C(=O)NCCC[S+](C)C)cs2)cs1)[C@@H](C)O)[C@@H](OC1OC(CO)C(O)C(O)C1OC1OC(CO)C(O)C(OC(N)=O)C1O)c1cnc[nH]1 (stereo not given in full) [Bleomycin] | 2.2 | 0 | 0 | 2.8 | 4.5 | 0.8 | 0 | 2.6 | 0.6 | 2.3 | 5.6 | 1 |
| Cc1cc(OCc2nnc(SC3CCCC3)n2-c2cccnc2)ccc1-c1ccc(S(C)(=O)=O)cc1 [NMS-873] | 8.6 | 8.7 | 4.4 | 9.3 | 8.1 | 6.7 | 6.8 | 12.4 | 7.9 | 8.9 | 19.9 | 6.9 |
